Test results reported in patent EP4768484A1, “HETEROCYCLIC FUSED RING COMPOUND, AND COMPOSITION AND USE THEREOF” (Shenzhen TargetRx, Inc., priority 2023, dated 2025).

Legend:
Format in all cases: cell-based
[1] = test system: K562 cells; assay: Cell growth inhibitory activity assay (CellTiter-Glo), K562 cells; details: Homo sapiens, 72 h, CTG cell viability
Method: (§1) In this assay, the Celltiter-Glo (CTG) kit provided by Promega was used, and it is a homogeneous cell viability assay method. The cell viability of cultured cells was measured by quantifying ATP. K562 cells were purchased from Nanjing Kebai, product number CBP60529; Ba/F3 parental cells were purchased from RIKEN BRC, product number RCB0805; other cells containing BCR-ABL1 WT, BCR-ABL1 T315I, BCR-ABL1 T315M, BCR-ABL1 Y253H/E255K, BCR-ABL1 E255V/T3151, BCR-ABL1 A424T, BCR-ABL1 A337V, BCR-ABL1 P465S, BCR-ABL1 V468F, and BCR-ABL1 I502L were all monoclonal engineered cell lines obtained by transducting Ba/F3 parental cells with the lentivirus plasmids containing WT or corresponding mutated BCR-ABL1.
(§2) The steps of cell viability assay are as follows: • a) Cells in logarithmic growth phase were collected. Cell suspension was prepared and the cells were counted. Concentration of the cells was calculated. • b) The cell suspension was diluted to the required concentration and then added to the middle wells of a 96-well plate, and PBS was added to the edge wells. The wells with no cells and only culture medium were used as blank controls. • c) In addition to the cell plate used for compound analysis, another 96-well plate was prepared as a T0 plate, and 3-6 blank wells and 3-6 cell wells were added. The next day, CTG was used to test the cell viability as the T0 viability value of the cells. • d) The cell plate was incubated at 37 °C in a 5% CO2 incubator overnight. • e) The next day, each concentration of a compound subjected to a gradient dilution was added, and the cell plate was incubated at 37 °C in a 5% CO2 incubator for 72 h. The wells with no compound and only 0.5% DMSO were used as positive controls for cell growth. • f) CTG reagent (CellTiter-Glo kit) was added according to the manufacturer's instructions to test the cell viability value. • g) The plate was read using Biotek cytation3.0 microplate reader and the data were exported. • h) IC50 was calculated using GraphPad Prism 7.0 software.
(§3) The IC50 (half-maximal inhibitory concentration) of the compound was obtained using the following nonlinear fitting formula: Y = Bottom + (Top−Bottom)/(1+10^(∧)((LogIC50−X)*HillSlope)) [formula] • X: Log value of the compound concentration • Y: Inhibition rate (% inhibition) • Top: Maximum response • Bottom: Baseline response • HillSlope: Slope of the curve
(§4) The formula for calculating cell inhibition rate (inhibition rate %) was: [formula]

[2] = biological target: T1, Ba/F3 BCR-ABL1 WT (Homo sapiens, UniProt P00519+P11274); assay: Cell growth inhibitory activity assay (CellTiter-Glo), Ba/F3 BCR-ABL1 WT cells; details: 72 h, CTG cell viability
T1 construct: BCR (N-terminal fusion partner of the oncoprotein); expressed in transfected cells; host or cells: Ba/F3 (lentiviral transduction, monoclonal line)
Method: as §1, §2, §3, §4

[3] = biological target: T2, Ba/F3 BCR-ABL1 T315I (Homo sapiens, UniProt P00519+P11274, T315I); assay: Cell growth inhibitory activity assay (CellTiter-Glo), Ba/F3 BCR-ABL1 T315I cells; details: 72 h, CTG cell viability
T2 construct: BCR (N-terminal fusion partner of the oncoprotein); expressed in transfected cells; host or cells: Ba/F3 (lentiviral transduction, monoclonal line)
Method: as §1, §2, §3, §4

[4] = test system: Ba/F3 parental cells; assay: Cell growth inhibitory activity assay (CellTiter-Glo), Ba/F3 parental cells; details: Mus musculus, BaF3, 72 h, CTG cell viability, read-out: IC50 Ba/F3 BCR-ABL1 Parental
Method: as §1, §2, §3, §4

Row | Structure (SMILES) | IC50 [1] [nM] | IC50 [2] [nM] | IC50 [3] [nM] | IC50 [4] [nM]
1 | C[C@@H]1CN(C)Cc2nc3cc(C(=O)Nc4ccc(OC(F)(F)Cl)cc4)cc(-c4cnc5c(c4)C(=O)N(C4CC4)C5)c3n21 [T-36, (R)-N-(4-(chlorodifluoromethoxy)phenyl)-6-(6-cyclopropyl-5-oxo-6,7-dihydro-5H-pyrrolo[3,4-b]pyridin-3-yl)-2,4-dimethyl-1,2,3,4-tetrahydrobenzo[4,5]imidazo[1,2-a]pyrazine-8-carboxamide] | ≤ 5 | ≤ 5 | > 1000 | > 1000
2 | CC1(C)C(=O)Nc2cc(C(=O)Nc3ccc(OC(F)(F)Cl)cc3)cc(-c3cnc4c(c3)-c3nn(-c5ncccn5)cc3C4)c21 [T-123, N-(4-(chlorodifluoromethoxy)phenyl)-3,3-dimethyl-2-oxo-4-(2-(pyrimidin-2-yl)-2,4-dihydropyrazolo[3',4':3,4]cyclopenta[1,2-b]pyridin-7-yl)indoline-6-carboxamide] | ≤ 5 | ≤ 5 | ≤ 5 | > 1000
3 | C[C@@H]1COCc2nc3cc(C(=O)Nc4ccc(OC(F)(F)Cl)cc4)cc(-c4cnc5c(c4)-c4n[nH]cc4C5=O)c3n21 [T-60, (R)-N-(4-(chlorodifluoromethoxy)phenyl)-4-methyl-6-(4-oxo-2,4-dihydropyrazolo[3',4':3,4]cyclopenta[1,2-b]pyridin-7-yl)-3,4-dihydro-1H-benzo[4,5]imidazo[2,1-c][1,4]oxazine-8-carboxamide] | ≤ 5 | ≤ 5 | > 1000 | > 1000
4 | N#Cc1ccnc(-n2cc3c(n2)-c2cc(-c4cc(C(=O)Nc5ccc(OC(F)(F)Cl)cc5)c(N)nc4N4CC[C@@H](F)C4)cnc2C3)n1 [T-133, (R)-2-amino-N-(4-(chlorodifluoromethoxy)phenyl)-5-(2-(4-cvanopyrimidin-2-yl)-2,4-dihydropyrazolo[3',4':3,4]cyclopenta[1,2-b]pyridin-7-yl)-6-(3-fluoropyrrolidin-1-yl)nicotinamide] | ≤ 5 | ≤ 5 | ≤ 5 | > 1000

Continued, in another order:

Row | IC50 [1] [nM] | Structure (SMILES) | IC50 [2] [nM] | IC50 [3] [nM] | IC50 [4] [nM]
5 | ≤ 5 | C[C@@H]1COCc2nc3cc(C(=O)Nc4ccc(OC(F)(F)Cl)cc4)cc(-c4cnc5c(c4)-c4nn(-c6ncc7ccccc7n6)cc4C5)c3n21 [T-82-B, (R)-N-(4-(chlorodifluoromethoxy)phenyl)-4-methyl-6-(2-(quinazolin-2-yl)-2,4-dihydropyrazolo[3',4':3,4]cyclopenta[1,2-b]pyridin-7-yl)-3,4-dihydro-1H-benzo[4,5]imidazo[2,1-c][1,4]oxazine-8-carboxamide] | ≤ 5 | ≤ 5 | > 1000
6 | ≤ 5 | COc1cnc(-n2cc3c(n2)-c2cc(-c4cc(C(=O)Nc5ccc(OC(F)(F)Cl)cc5)cnc4N4CC[C@@H](F)C4)cnc2C3)nc1 [T-17, (R)-N-(4-(chlorodifluoromethoxy)phenyl)-6-(3-fluoropyrrolidin-1-yl)-5-(2-(5-methoxypyrimidin-2-yl)-2,4-dihydropyrazolo[3',4':3,4]cyclopenta[1,2-b]pyridin-7-yl)nicotinamide] | ≤ 5 | ≤ 5 | > 1000
7 | ≤ 5 | C[C@@H]1COCc2nc3cc(C(=O)Nc4ccc(OC(F)(F)Cl)cc4)cc(-c4cnc5c(c4)-c4nn(C)cc4C5)c3n21 [T-16, (R)-N-(4-(chlorodifluoromethoxy)phenyl)-4-methyl-6-(2-methyl-2,4-dihydropyrazolo[3',4':3,4]cyclopenta[1,2-b]pyridin-7-yl)-3,4-dihydro-1H-benzo[4,5]imidazo[2,1-c][1,4]oxazine-8-carboxamide] | ≤ 5 | ≤ 5 | > 1000
